Data set [1] has as its system binding of AP-3 to the dileucine-based sorting signal containing tyrosinase. The experiment in a line: BIAcore competition: binding of AP-3 to tyrosinase tail peptide. The note with it: 200 nM adaptor, 10-1000 fold molar excess of peptide; FIG. 4. Also on record: species or system human. The procedure:
(§1) Human tyrosinase also contains tyrosine residues in its cytoplasmic tail sequence, however they are not relevant with respect to adaptor binding. Instead, the tail contains a dileucine-based sorting signal that is bound by adaptors such as AP-2 and AP-3.
(§2) Binding between adaptors and the tyrosinase tail peptide was recorded in real-time using a BIAcore 3000 biosensor (GEHealthcare) based on surface plasmon resonance. The tyrosinase tail peptide (sequence: -[…]) (SEQ ID NO: 6) was immobilized on the surface of a CM5 sensor surface using thiol coupling and resulting in the immobilization of ≦300 RU of peptide. In brief, the CM5 surface was activated with EDC/NHS for 2 min at a flow-rate of 10 μl/min, followed by modification with PDEA for another 2 min. Subsequently, peptide was injected at a flow-rate of 5 μl/min for 1 min at a concentration of 5 μg/ml in 10 mM sodium acetate pH 4.5. The flow-rate was then adjusted to 20 μl/min and remaining active groups were blocked by injection of 50 mM cysteine, 1M NaCl. […]
(§3) For competition experiments, 200 nM adaptors were incubated with a 10-1000 fold molar excess of one of the 5 compound peptides for 10 min prior to injection. For comparison of adaptor binding to the immobilized tyrosinase tail, the RU values at the end of the injection (association period) and after the dissociation period were evaluated. […]
(Surface plasmon resonance follows binding to a sensor surface in real time, without labels.)

Data set [2] relates to binding of AP-2 to the dileucine-based sorting signal containing tyrosinase. Description: BIAcore competition: binding of AP-2 to tyrosinase tail peptide. Also on record: species or system human. The note with it: 200 nM adaptor, 10-1000 fold molar excess of peptide; FIG. 3. The procedure: as §1, §2, §3
The subject of data set [3] is B16 melanoma cells. The experiment in a line: Effect on melanogenesis (melanin, absorption at 405 nm) boosted by NDP-MSH. It is filed as cell-based. The note with it: for inhibition of the synthesis of melanine: with NDP-MSH, 96 hours. The procedure: (§4) B16 melanoma cells were cultured at 37° C. and 5% of CO2 in microplates with 96 wells in the presence of DMEM (Invitrogen, reference 11880028) containing 1 g/l of glucose without phenol red supplemented by 3 g/l of glucose (Sigma, reference G7021), 2 mM of L-glutamine, 50 UI/ml of penicillin, 50 μg/ml of […] (Invitrogen, reference 15070063) and 10% of fetal veal serum (Invitrogen, 10270098). After 24 h, the culture medium is replaced by a DMEM medium containing or not (control) a stable derivative of α-MSH, i.e. NDP-MSH (NLE-4-D-PHE-7-A Melanocytes Stimulating Hormone, Sigma, reference M-8764) and containing or not the peptide (compound 3 of example 1 or its N-palmitoyl derivative) according to the invention. Each peptide was tested with and without lipofectamine, (Invitrogen, reference 1538-100), an agent used to facilitate the peptide penetration. The melanocytes were then incubated for 72 hours at 37° C. and 5% of CO2.
The protocol used is the same as in example 3. The melanocytes were incubated for 96 hours at 37° C. and 5% of CO2. Kojic acid was used as a positive control.
At the end of the incubation period, the quantity of melanine was evaluated by measuring the absorption at 405 nm for each sample.

Data set [4] has as its system B16 melanoma cells. Description: Melanocyte intracellular penetration of peptide+FITC. The note with it: 72 hours. The format is cell-based. As to the method:
as §4
At the end of the incubation period, the medium was eliminated and cells were rinsed with a solution of PBS (phosphate buffer saline). The penetration of each peptide was analyzed by microscopy (In Cell Analyser® 100, GE Healthcare) with the objective ×20 or by Flux Cytometry after unsticking of cells by enzymatic treatment with trypsine (Flux FACSarray, Becton Dickinson).
The following table 1 illustrates the measurement of the penetration of the peptide+FITC (fluoresceine isothiocyanate) in B16 melanocytes at different peptide concentrations (4, 20, 100 and 500 μg/ml).

The mark [5] stands for this setting: without lipofectamine, 20 μg/ml.
[6] abbreviates: without lipofectamine, 100 μg/ml.
Where [7] appears, read: without lipofectamine, 500 μg/ml.

From US8440624B2, “Peptide whitening agents and cosmetic compositions comprising the same” (Chanel Parfums Beaute, priority 2007, dated 2013) come the findings set out here.

Where a SMILES comes first, the peptide text is derived from it. Where no end group is shown, it is not given here. The star is where a group is joined. Palmitoyl = CCCCCCCCCCCCCCCC(=O)*

For AEDEPLLVD [Compound 4], in data set [1], the “inhibition of the binding of AP-3 to tyrosinase” value is “most active”. The “inhibition of the binding of AP-2 to tyrosinase” value in data set [2] is on record as “most active”.

In the case of `CCCCCCCCCCCCCCCC(=O)N[C@@H](C)C(=O)N[C@@H](CCC(=O)O)C(=O)N[C@@H](CC(=O)O)C(=O)N[C@@H](CCC(=O)O)C(=O)N1CCC[C@H]1C(=O)N[C@@H](CC(C)C)C(=O)N[C@@H](CC(C)C)C(=O)N[C@@H](CCSC)C(=O)N[C@@H](CCC(=O)O)C(=O)O` [N-palmitoyl derivative of compound 3] (Palmitoyl-AEDEPLLME-OH; C-terminus assumed), the “inhibition of the synthesis of melanine” value was “ns *” with B16 melanoma cells [3] (without lipofectamine, 0.5 μg/ml); 9 % of inhibition with B16 melanoma cells [3] (without lipofectamine, 1 μg/ml); 10 % of inhibition in the data set on B16 melanoma cells [3] (without lipofectamine, 2.5 μg/ml); 14 % of inhibition in the data set with B16 melanoma cells [3] (without lipofectamine, 5 μg/ml); 20 % of inhibition in the data set with B16 melanoma cells [3] (without lipofectamine, 10 μg/ml). Also, the “penetration of the peptide+FITC in B16 melanocytes” value (shortened to “penetration of the peptide+FITC”) in the data set with B16 melanoma cells [4] (with lipofectamine, 4 μg/ml) worked out at 765 % control; in the data set on B16 melanoma cells [4] (with lipofectamine, 20 μg/ml) it was 1495 % control; in the data set with B16 melanoma cells [4] (with lipofectamine, 100 μg/ml), 1331 % control; with B16 melanoma cells [4] (with lipofectamine, 500 μg/ml) it was 7726 % control; in the data set with B16 melanoma cells [4] (without lipofectamine, 4 μg/ml) it was 276 % control; in the data set with B16 melanoma cells [4] (setting [5]) it was 364 % control. Besides, the “penetration of the peptide+FITC” value in the data set with B16 melanoma cells [4] (setting [6]) is recorded as 1486 % control; in the data set with B16 melanoma cells [4] (setting [7]), 982 % control.

On to AEDEPLLME [Compound 3, AEDEPLLME], for which the “penetration of the peptide+FITC” value in the data set on B16 melanoma cells [4] (with lipofectamine, 4 μg/ml) is 166 % control; in the data set on B16 melanoma cells [4] (with lipofectamine, 20 μg/ml), 338 % control; in the data set on B16 melanoma cells [4] (with lipofectamine, 100 μg/ml) it was 1097 % control; with B16 melanoma cells [4] (with lipofectamine, 500 μg/ml), 4265 % control; in the data set with B16 melanoma cells [4] (without lipofectamine, 4 μg/ml), “ns *”; with B16 melanoma cells [4] (setting [5]), 263 % control. Moreover, the results for the “penetration of the peptide+FITC” value in the data set on B16 melanoma cells [4] (setting [6]) and in the data set on B16 melanoma cells [4] (setting [7]) were 533 % control and 1640 % control, respectively.

For the molecule `O=c1cc(CO)occ1O` [Kojic acid, reference compound], in the data set with B16 melanoma cells [3] (tested between 36 and 80 μg/ml), the “inhibition of the NDP-MSH induction of the synthesis of melanin” value is listed as “sharply inhibited”. Besides, the “inhibition of the synthesis of melanine” value was −13 % of inhibition with B16 melanoma cells [3] (6.9 μg/ml), −7 % of inhibition with B16 melanoma cells [3] (15.6 μg/ml), 33 % of inhibition in the data set with B16 melanoma cells [3] (36 μg/ml) and 75 % of inhibition with B16 melanoma cells [3] (80 μg/ml).
